Results published in patent US10961252B2, “Quinazoline and indole compounds to treat medical disorders” (Achillion Pharmaceuticals, Inc., priority 2016, dated 2021).
Counter-ions that a name gives are not always drawn.

Each compound was assayed on Normal Human Serum (NHS) (assay: Hemolysis assay: lysis of rabbit erythrocytes (RE) by Normal Human Serum (NHS)). Settings: rabbit erythrocyte, 0.5 h, Table 1, hemolysis of rabbit erythrocytes with NHS, GVB0 plus 10 mM Mg-EGTA, 37° C., read-out: IC50.
Type: cell-based
Experimental: The hemolysis assay was previously described by G. Ruiz-Gomez, et al., J. Med. Chem. (2009) 52: 6042-6052. Prior to the assay, the optimum concentration of Normal Human Serum (NHS) needed to achieve 100% lysis of rabbit erythrocytes (RE) is determined by titration. In the assay, NHS (Complement Technology) is diluted in GVB^0 Buffer (0.1% gelatin, 5 mM Veronal, 145 mM NaCl, 0.025% NaN3, pH 7.3, Complement Technology) plus 10 mM Mg-EGTA and incubated with test compound at various concentrations for 15 minutes at 37° C. RE (Complement Technology) freshly suspended in GVB^0 plus 10 mM Mg-EGTA are added to a final concentration of 1×10^8 cells/mL and reactions are incubated for 30 minutes at 37° C. Positive control reactions (100% lysis) consist of GVB^0 plus 10 mM Mg-EGTA with NHS and RE but without test compound; negative control reactions (0% lysis) consist of GVB^0 plus 10 mM Mg-EGTA with RE only. Samples are centrifuged at 2000 g for 3 minutes and supernatants collected. Absorbance at 405 nm (A405) is recorded using a microplate spectrophotometer. IC50 values are calculated by nonlinear regression from the percentage of hemolysis as a function of test compound concentration.
Work on `COc1cc2c(N)nc(N3CCN(C(=O)C[C@@H]4C[C@@H]5CCC[C@@H]5N4)CC3)nc2c(F)c1OC` [Compound 2, 1-(4-(4-Amino-8-fluoro-6,7-dimethoxyquinazolin-2-yl)piperazin-1-yl)-2-((2S,3aS,6aS)-octahydrocyclopenta[b]pyrrol-2-yl)ethan-1-one Hydrochloride] yielded an IC50 of under 1000 nM.
With `CCN[C@H](CC(=O)N1CCC(c2nc(N)c3cc(OC)c(OC)c(F)c3n2)=C(C(=O)O)C1)c1ccc(F)cc1` [Compound 8, (R)-4-(4-Amino-8-fluoro-6,7-dimethoxyquinazolin-2-yl)-1-(3-(ethylamino)-3-(4-fluorophenyl)propanoyl)-1,2,5,6-tetrahydropyridine-3-carboxylic Acid] the IC50 was over 10000 nM.
`CCN[C@H](CC(=O)N1CC2CCC(C1)N2c1nc(N)c2cc(OC)c(OC)c(F)c2n1)c1ccc(F)cc1` [Compound 13, (3R)-1-(8-(4-Amino-8-fluoro-6,7-dimethoxyquinazolin-2-yl)-3,8-diazabicyclo[3.2.1]octan-3-yl)-3-(ethylamino)-3-(4-fluorophenyl)propan-1-one] gave an IC50 of under 1000 nM.
For `COc1cc2c(N)nc(N3CC4CCC(C3)N4C(=O)C=Cc3ccc(F)cc3)nc2c(F)c1OC` [Compound 14, 1-(3-(4-Amino-8-fluoro-6,7-dimethoxyquinazolin-2-yl)-3,8-diazabicyclo[3.2.1]octan-8-yl)-3-(4-fluorophenyl)prop-2-en-1-one], the IC50 was over 10000 nM.
Work on `CCN[C@H](CC(=O)N1CC2CCC1CN2c1nc(N)c2cc(OC)c(OC)c(F)c2n1)c1ccc(F)cc1` (stereo partly drawn) [Compound 15, (3R)-1-(5-(4-Amino-8-fluoro-6,7-dimethoxyquinazolin-2-yl)-2,5-diazabicyclo[2.2.2]octan-2-yl)-3-(ethylamino)-3-(4-fluorophenyl)propan-1-one] yielded an IC50 of over 10000 nM.
Work on `CCN[C@H](CC(=O)N1CCN(c2nc(N)c3cc4c(c(F)c3n2)OC(F)(F)O4)CC1)c1ccc(F)cc1` [Compound 12, (R)-1-(4-(8-Amino-2,2,4-trifluoro-[1,3]dioxolo[4,5-g]quinazolin-6-yl)piperazin-1-yl)-3-(ethylamino)-3-(4-fluorophenyl)propan-1-one] yielded an IC50 of 1000 to 10000 nM.
For `CCN[C@H](CC(=O)N1CCC(c2nc(N)c3cc(OC)c(OC)c(F)c3n2)=C(C(=O)OC)C1)c1ccc(F)cc1` [Compound 6, Methyl (R)-4-(4-amino-8-fluoro-6,7-dimethoxyquinazolin-2-yl)-1-(3-(ethylamino)-3-(4-fluorophenyl)propanoyl)-1,2,5,6-tetrahydropyridine-3-carboxylate], the IC50 was 1000 to 10000 nM.
For `CCN[C@H](CC(=O)N1C(C)C=C(c2nc(N)c3cc(OC)c(OC)c(F)c3n2)CC1C)c1ccc(F)cc1` (stereo partly drawn) [Compound 10, (3R)-1-(4-(4-Amino-8-fluoro-6,7-dimethoxyquinazolin-2-yl)-2,6-dimethyl-3,6-dihydropyridin-1(2H)-yl)-3-(ethylamino)-3-(4-fluorophenyl)propan-1-one], the IC50 was under 1000 nM.
`COc1cc2c(N)nc(N3CCN(C(=O)C[C@@H]4C[C@@H]5CCCC[C@@H]5N4)CC3)nc2c(F)c1OC` [Compound 3, 1-(4-(4-Amino-8-fluoro-6,7-dimethoxyquinazolin-2-yl)piperazin-1-yl)-2-((2S,3aS,7aS)-octahydro-1H-indol-2-yl)ethan-1-one Hydrochloride] was tested, and the IC50 was under 1000 nM.
With `CCN[C@H](CC(=O)N1CCC(c2nc(N)c3cc(OC)c(OC)c(F)c3n2)C(C(=O)O)C1)c1ccc(F)cc1` (stereo partly drawn) [Compound 9, 4-(4-Amino-8-fluoro-6,7-dimethoxyquinazolin-2-yl)-1-((R)-3-(ethylamino)-3-(4-fluorophenyl)propanoyl)piperidine-3-carboxylic acid] the IC50 was 1000 to 10000 nM.
Compound `CCN[C@H](CC(=O)N1CC=C(c2nc(N)c3cc(OC)c(OC)c(F)c3n2)CC1)c1ccc(F)cc1` [Compound 4, (R)-1-(4-(4-Amino-8-fluoro-6,7-dimethoxyquinazolin-2-yl)-3,6-dihydropyridin-1(2H)-yl)-3-(ethylamino)-3-(4-fluorophenyl)propan-1-one] has an IC50 of under 1000 nM.
With `COc1cc2c(N)nc(N3CCN(C(=O)CC4NCCS4)CC3)nc2c(F)c1OC` (stereo not shown) [Compound 1, 1-(4-(4-Amino-8-fluoro-6,7-dimethoxyquinazolin-2-yl)piperazin-1-yl)-2-(thiazolidin-2-yl)ethan-1-one Hydrochloride] the IC50 was over 10000 nM.

Same assay, conditions: rabbit erythrocyte, 0.5 h, Table 2, hemolysis of rabbit erythrocytes with NHS, GVB0 plus 10 mM Mg-EGTA, 37° C., read-out: IC50 (Stars)
In the case of `COc1cc2c(N)nc(C3=CCN(C(=O)C[C@@H]4C[C@@H]5CCCC[C@@H]5N4)CC3)nc2c(F)c1OC` [Compound 18, 1-(4-(4-Amino-8-fluoro-6,7-dimethoxyquinazolin-2-yl)-3,6-dihydropyridin-1(2H)-yl)-2-((2S,3aS,7aS)-octahydro-1H-indol-2-yl)ethan-1-one TFA salt], the IC50 is reported as under 1000 nM.
`CCN[C@H](CC(=O)N1CC2CCC(C1)N2c1nc(N)c2cc(OC)c(OC)c(F)c2n1)c1ccc(C#N)cc1` [Compound 16, 4-((1R)-3-(8-(4-Amino-8-fluoro-6,7-dimethoxyquinazolin-2-yl)-3,8-diazabicyclo[3.2.1]octan-3-yl)-1-(ethylamino)-3-oxopropyl)benzonitrile] gave an IC50 of under 1000 nM.

Same assay, conditions: rabbit erythrocyte, 0.5 h, Table 3, hemolysis of rabbit erythrocytes with NHS, GVB0 plus 10 mM Mg-EGTA, 37° C., read-out: IC50 (Stars)
`COc1cc(C)c2[nH]ccc2c1CN1CCC(C)CC1c1ccc(S(C)(=N)=O)cc1` (stereo not shown) [Compound 25, 5-Methoxy-7-methyl-4-((4-methyl-2-(4-(S-methylsulfonimidoyl)phenyl)piperidin-1-yl)methyl)-1H-indole] was tested, and the IC50 was under 1000 nM.
With `COc1cc(C)c2[nH]ccc2c1CN1CC[C@@H](C)C[C@@H]1c1ccc(C(=O)O)c2c1CCCC2` [Compound 35, 4-((2R,4R)-1-((5-Methoxy-7-methyl-1H-indol-4-yl)methyl)-4-methylpiperidin-2-yl)-5,6,7,8-tetrahydronaphthalene-1-carboxylic Acid] the IC50 was over 10000 nM.
For `COc1cc(C)c2[nH]c(C)cc2c1CN1CC[C@@H](C)C[C@H]1c1ccc(C(=O)O)cc1` [Compound 24, 4-((2S, 4R)-1-((5-Methoxy-2,7-dimethyl-1H-indol-4-yl) Methyl)-4-methylpiperidin-2-yl) Benzoic Acid], the IC50 was over 10000 nM.
`COc1cc(C)c2[nH]ccc2c1CN1CCC(F)(F)CC1c1ccc(C(=O)O)cc1` (stereo not shown) [Compound 19, 4-(4,4-difluoro-1-((5-methoxy-7-methyl-1H-indol-4-yl)methyl)piperidin-2-yl)benzoic Acid] showed an IC50 of over 10000 nM.
`COc1cc(C)c2[nH]ccc2c1CN1CCC(C)CC1c1ccc(P(=O)(O)O)cc1` (stereo not shown) [Compound 26, 4-(1-((5-Methoxy-7-methyl-1H-indol-4-yl)methyl)-4-methylpiperidin-2-yl)phenylphosphonic Acid] was tested, and the IC50 was under 1000 nM.
`COc1cc(C)c2[nH]ccc2c1CN1CC[C@@H](C)C[C@H]1c1ccc([S@@](C)(=N)=O)cc1` [Compound 30, 5-Methoxy-7-methyl-4-(((2S,4R)-4-methyl-2-(4-((S)—S-methylsulfonimidoyl)phenyl)piperidin-1-yl)methyl)-1H-indole] showed an IC50 of under 1000 nM.
`COc1cc(C)c2[nH]ccc2c1CN1CC[C@@H](C)C[C@H]1c1ccc(C(=O)O)c2c1CCCC2` [Compound 34, 4-((2S,4R)-1-((5-Methoxy-7-methyl-1H-indol-4-yl)methyl)-4-methylpiperidin-2-yl)-5,6,7,8-tetrahydronaphthalene-1-carboxylic Acid] showed an IC50 of under 1000 nM.
Work on `COc1cc(C)c2[nH]ccc2c1CN1CCCC[C@H]1C1CCC(C(=O)O)CC1` (stereo partly drawn) [Compound 20, (1R,4S)-4-((S)-1-((5-Methoxy-7-methyl-1H-indol-4-yl)methyl)piperidin-2-yl) Cyclohexanecarboxylic Acid] yielded an IC50 of over 10000 nM.
With `COc1cc(C)c2[nH]ccc2c1CN1CC[C@@H](C)C[C@H]1c1ccc(P(=O)(O)O)cc1` [Compound 32, (4-((2S,4R)-1-((5-Methoxy-7-methyl-1H-indol-4-yl)methyl)-4-methylpiperidin-2-yl)phenyl)phosphonic Acid] the IC50 was under 1000 nM.
`COc1cc(C)c2[nH]ccc2c1CN1CC[C@@H](C)C[C@H]1c1ccc(S(C)(=N)=O)cc1` (stereo partly drawn) [Compound 22, 5-Methoxy-7-methyl-4-(((2 S,4R)-4-methyl-2-(4-(S-methylsulfonimidoyl)phenyl)piperidin-1-yl)methyl)-1H-indole] was tested, and the IC50 was under 1000 nM.
Work on `COc1cc(C)c2[nH]ccc2c1CN1CCC(C)CC1c1ccc(C(=O)NO)cc1` (stereo not shown) [Compound 27, N-Hydroxy-4-(1-((5-methoxy-7-methyl-1H-indol-4-yl)methyl)-4-methylpiperidin-2-yl)benzamide] yielded an IC50 of under 1000 nM.
Work on `COc1cc(C)c2[nH]ccc2c1CN1CC[C@H](C)C[C@@H]1c1ccc(P(=O)(O)O)cc1` [Compound 33, 4-((2R, 4S)-1-((5-Methoxy-7-methyl-1H-indol-4-yl)methyl)-4-methylpiperidin-2-yl) Phenylphosphonic Acid] yielded an IC50 of 1000 to 10000 nM.
Compound `COc1cc(C)c2[nH]ccc2c1CN1CC[C@H](C)C[C@@H]1c1ccc(S(C)(=N)=O)cc1` (stereo partly drawn) [Compound 23, 5-Methoxy-7-methyl-4-(((2R,4S)-4-methyl-2-(4-(S-methylsulfonimidoyl)phenyl)piperidin-1-yl)methyl)-1H-indole] has an IC50 of over 10000 nM.
With `COc1cc(C)c2[nH]ccc2c1CN1CC[C@@H](C)C[C@H]1c1ccc(P(C)(=O)O)cc1` [Compound 29, 4-((2S, 4R)-1-((5-Methoxy-7-methyl-1H-indol-4-yl)methyl)-4-methylpiperidin-2-yl) Phenyl (Methyl) Phosphinic Acid] the IC50 was under 1000 nM.
